Data set [1] deals with retinal disorders due to transient retinal ischemia. Nature of the data set: rat model with retinal disorders due to transient retinal ischemia. It is filed as in vivo. Particulars: SD male rats. As for the experimental part:
Effects of the compound represented by the formula (I) (which will hereinafter be called “compound of the present invention”) on a rat model with retinal disorders due to transient retinal ischemia;
The model with retinal disorders due to transient retinal ischemia was prepared in accordance with the method described in Eur. J. Pharmaco., 350, 53-57 (1998).
After rats (SD male rats, 9-week-old (purchased from Charles River Japan, Inc.)) were weighed, pentobarbital sodium (Pentbarbital Na) (50-75 mg/kg) was intraperitoneally administered to anesthetize them. They were fixed to a platform, and kept warm at around 37° C. A perfusate for ophthalmic surgery (“BSS PLUS”; product of Santen Pharmaceutical) was hung so that the height from the position of the eyes of the rats would be 170 cm±5 cm. This height permitted application of pressure of about 130 mmHg. To the perfusate bottle was connected an extension tube and an injection needle (27 gauge×¾ inch) was attached to another end of the tube. […]
After the eyeballs were immobilized in a Davidson's fixative and a paraffin section was prepared at the cross-section passing through the optic papilla, it was dyed with hematoxylin and eosin (H.E.). […] The number of granule cells (GCL (ganglion cell layer), cell/mm) per 1 mm width of the optic papilla was counted by optical microscopic examination. […]

Another data set has as its system rats. Nature of the data set: single-dose oral toxicity in rats. Type of data set: in vivo, rat. Particulars: single-dose oral administration to rats. The procedure: The compound represented by the formula (I) or a non-toxic salt thereof has markedly low toxicity so that use of it as a pharmaceutical can be considered as safe enough. For example, the minimum lethal dose of the compound represented by the formula (I) by single-dose oral administration to rats was 2000 mg/kg or more.

`CC(C)(C)OC(=O)N1CSC[C@H]1C(=O)N[C@@H](CSCC1CCCCC1)C(=O)NC1CCN(Cc2ccccc2)CC1` [Compound of the present invention, (2R)-N-(1-Benzylpiperidin-4-yl)-3-cyclohexylmethylthio-2-((4R)-3-t-butoxycarbonylthiazolidin-4-ylcarbonylamino)propanamide]: the “The number of granule cells (GCL)” value in data set [1] (100 mg/5 mL/kg oral one hour before 45 min ischemia, counted one week after ischemia, per 1 mm width of the optic papilla) is given as 49.2 cell/mm. Besides, in data set [1] (100 mg/kg oral one hour before ischemia, from granule cell counts of Table 1), the “inhibiting activity to the model of retinal disorders due to transient retinal ischemia” value turned out to be 34%. Besides, the minimum lethal dose in the data set on rats is not below 2000 mg/kg.
